Laboratory results taken from US5464819A, “Physiologically active peptide having immunoregulatory activities” (priority 1990, dated 1995).
Ends that are not written are not given here.

Tests used:
Toxoplasma strain RH [1] = assay: Activity to inhibit multiplication of Toxoplasma (percentage of cells containing Toxoplasma, Toxo-GIF activity, cytotoxicity) in mouse peritoneal macrophages; format: cell-based, Toxoplasma gondii
Method: (§1) In the present invention, the activity to inhibit multiplication of Toxoplasma is evaluated by two characteristics, i.e. "percentage of cells containing Toxoplasma" and "Toxoplasma growth inhibitory factor activity (hereinafter referred to as "Toxo-GIF activity")". These characteristics are measured according to the methods described in Nagasawa, H., et.al., Jpn. J. Vet. Sci., vol. 43, pages 307-319, 1981 and Sakurai, H., et.al., Jpn. J. Trop. Med. Hyg., vol. 10, pages 183-195, 1982.
An adult BALB/c female mouse is intraperitoneally injected with 1 ml of a sterilized saline containing 0.2% of glycogen, and, 5 days later, the peritoneal cavity of the mouse is washed with cold Hank's balanced salt solution (hereinafter referred to as "HBSS"), thereby taking up peritoneal exudate cells. These cells are washed by centrifugation at 250×G for 5 min twice, and suspended in Tc199 culture medium containing 10% of heat-inactivated calf serum (hereinafter referred to as "10%-HICS-Tc199 culture medium", see Igaku No Ayumi (Progress in Medicine), 62, No. 6, published on Aug. 5, 1967) in a concentration of 1×10^6 cells/mi. This cell suspension is portionwise poured, 1 ml each, into culture wells (Multidish-tray, FB-16-24-TC, manufactured and sold by Limblo Chemical Co., U.S.A.), which are covered by a circular cover glass having a diameter of 15 mm, and cultured in a 5% CO2 -incubator. In order to remove contaminating erythrocytes and lymphocytes, each of the culture wells is gently rinsed with HBSS three times at intervals of 2 hours, and then cultivated overnight in the CO2 -incubator to thereby form a mouse macrophage monolayer on the cover glass.
Each of the above-obtained monolayers is again rinsed with 10%-HICS-Tc199 culture medium, and inoculated with 1×10^5 tachyzoites of Toxoplasma strain RH per 1×10^6 mouse macrophages or canine monocytes so that the macrophages are infected thereby. Free Toxoplasma organisms having not penetrated into the cells are removed by washing with HBSS one hour after the inoculation.
(§2) A 10%-HICS-Tc199 culture medium containing a peptide sample is applied to the cover glass in an amount of 1 ml per 1×10^6 cells for both of the mouse macrophages and the canine monocytes, followed by cultivation for 48 hours, and then stained with May-Grunwald-Giemsa to thereby count the number of Toxoplasma organisms in the cells. Within a certain visual field on the cover glass, 100 cells are checked to count the number of cells which contain no Toxoplasma, the number of cells which contain one to five Toxoplasm organisms and the number of cells which contain 6 or more Toxoplasma organisms, and the count results are expressed by percentage. Similar checking and counting are performed within four other visual fields on the cover glass. From the data obtained on all of the five visual fields, an average value and a standard deviation are calculated to determine the percentage of cells containing Toxoplasma.
As a peptide sample, use is made of one obtained by dissolving a powdery peptide in 3 ml of 10%-HICS-Tc199 culture medium and then filtering and sterilizing the resultant solution through a membrane filter having a pore size of 0.46 μm. […]
The thus obtained crude Obioactin is fractionated by DEAE-5PW column (manufactured and sold by Tosoh Co., Japan) having an inside diameter of 21.5 mm and a length of 15 cm by NaCl concentration gradient ion exchange chromatography in which a concentration gradient of NaCl from 0M to 1M is made in 0.02M ammonium acetate as a basic solution. Each of the fractions is lyophilized, desalted by gel filtration through Sephadex G-15 (trade name of a gel manufactured and sold by Pharmacia Fine Chemicals Co., Sweden) and lyophilized again.

Toxoplasma = assay: Toxo-GIF activity of synthetic peptides used singly and in combination (host cells not stated); format: cell-based, Toxoplasma gondii; conditions: total mg/ml: Obio-1 0.49, Obio-2 0.50, Obio-3 0.45, Obio-1+Obio-2 0.49, Obio-1+Obio-3 0.46, Obio-2+Obio-3 0.47
Method: as §1, §2
(§3) The Toxo-GIF activity, which is another activity useful for evaluating the activity to inhibit multiplication of Toxoplasma, is defined as a proportion of decrease of Toxoplasma (Tp)-containing cells (in percentage) attributed to the addition of a peptide sample, expressed by percentage, and calculated according to the following formula: Toxo-GIF Activity (%)= [formula]

[2] = test system: Methylcholanthrene induced tumor (MC tumor); assay: Effect of peptide injection on tumor multiplication in Methylcholanthrene induced tumor (MC tumor)-bearing mouse; format: in vivo; conditions: 28 days after inoculation with MC tumor cells; 30 μg/mouse intramuscularly every week; control 432±10.5
Method: (§4) Methylcholanthrene induced tumor cells excised from an MC induced tumor lump of a BALB/c mouse having, injected thereto, 0.5 mg of 20-Methylcholanthrene (manufactured and sold by Wako Pure Chemical Industries Ltd.), are suspended in RPMI-1640 culture medium, thereby obtaining a cell suspension of 2×10^7 cells/ml. 0.025 ml (5×10^5 MC tumor cells/mouse) of the cell suspension is intramuscularly injected under the skin on the back of a 6-week-old male mouse to inoculate the mouse with MC-tumor cells, thereby obtaining a tumor-bearing mouse.
(§5) Each of Obio-2 and Obio-3 is intramuscularly injected in an amount of 30 μg/mouse under the skin on the back of the mouse every week after the injection of the above MC tumor cell suspension to evaluate the inhibitory effect thereof on the multiplication of the tumor. Five tumor-bearing mice are employed for each test, and an average is taken.

[3] = test system: mononuclear cells in spleen; assay: Number of mononuclear cells in spleen and histopathology of MC tumor-bearing mouse; format: in vivo; conditions: for Bleeding colonies at the tumor tissue portions (histopathological findings): MC tumor-bearing mice, large bleeding colonies in uninjected mice; for Spleen mononuclear cell count in tumor-bearing mice relative to normal mice: spleen mononuclear cells, saline 0.10; for Spleen mononuclear cell count in tumor-bearing mice relative to normal mice / Number of mononuclear cells per mouse: MC tumor-bearing mouse; for Number of mononuclear cells per mouse: spleen, 30 μg once a week, normal mouse 13.0 × 10^7, saline 1.3 × 10^7
Method: as §4, §5
On the other hand, the number of mononuclear cells in the spleen of tumor-bearing mice injected with Obio-2 and Obio-3 experience only a slight decrease, and retains as large a number as 65 to 70% of that of normal mice. In the histopathological findings of these spleens, no significant change is observed in the spleen follicles of both the tumor-bearing mouse groups injected with Obio-2 and Obio-3 and the tumor-bearing mouse group injected with none of them. However, in the mouse groups injected with Obio-2 and Obio-3, small mononuclear cells (small lymphocytes) and large monocytes in the spleen red marrow conspicuously gather in the mallow, especially around the vessels, whereas the control mouse group not injected with the peptide has only small lymphocytes in the marrow.

Toxoplasma strain RH [4] = assay: Activity to inhibit multiplication of Toxoplasma in canine monocytes; format: cell-based, Toxoplasma gondii; conditions: Obio-2 0.05 mg/ml, canine monocyte cell
Method: as §1
On the other hand, in the preparation of canine monocytes, 5 ml of blood is collected from cervical vein as a peripheral blood, and 0.05% of heparin is added. This blood is subjected to fractionation according to the Conray 400-Ficoll method (see Tsuji, H., Men-eki Jikken Sosaho (Procedure for Immunological Tests), 4th ed., Immunocells I-4, pages 443-446, published by Maeda Printing Co., Ltd., in 1979) to thereby obtain a mononuclear cell fraction. The obtained mononuclear cell fraction is subjected to centrifugation (800×G, 5 min., 4° C.) with HBSS and then with 10%-HICS-Tc199 culture medium, and suspended in 10%-HICS-Tc199 culture medium in a concentration of about 1×10^6 cells/mi. The resultant cell suspension is portionwise poured, 1 ml each, into the above-mentioned culture wells, which are covered by a circular cover glass having a diameter of 15 mm, and cultured in a 5% CO2 -incubator. The culturing is effected for 12 hours, and each of the culture wells is gently rinsed with HBSS three times, followed by cultivation overnight in the CO2 -incubator, to thereby form a canine monocyte monolayer on the cover glass.
Each of the above-obtained monolayers is again rinsed with 10%-HICS-Tc199 culture medium, and inoculated with 1×10^5 tachyzoites of Toxoplasma strain RH per 1×10^6 mouse macrophages or canine monocytes so that the macrophages are infected thereby. […]
A 10%-HICS-Tc199 culture medium containing a peptide sample is applied to the cover glass in an amount of 1 ml per 1×10^6 cells for both of the mouse macrophages and the canine monocytes, followed by cultivation for 48 hours, and then stained with May-Grunwald-Giemsa to thereby count the number of Toxoplasma organisms in the cells. […] From the data obtained on all of the five visual fields, an average value and a standard deviation are calculated to determine the percentage of cells containing Toxoplasma.
as §3, with “[formula] […]” for “[formula]”
(§6) The effect of the No. 5 peptide (Obio-2) is evaluated.

Toxoplasma strain RH [5] = assay: Activity to inhibit multiplication of Toxoplasma in human myocardial cells (Giardi Heart cell); format: cell-based, Toxoplasma gondii; conditions: Obio-2 0.05 mg/ml
Method: as §1
(§7) The cells are suspended in MEM-M culture medium containing 10% of heat-inactivated calf serum at a concentration of 1×10^6 cells/mi. This cell suspension is portionwise poured, 1 ml each, into culture wells (multidish-tray, FB-16-24-TC, manufactured and sold by Limblo Chemical Co., U.S.A.), which are covered by a circular cover glass having a diameter of 15 mm, and cultured in a 5% CO2 -incubator overnight to thereby obtain a cell monolayer (a human myocardial cell monolayer and a human cerebral cell monolayer) on the cover glass.
(§8) The obtained cell monolayer is rinsed with MEM-M culture medium, and inoculated with 1×10^5 tachyzoites of Toxoplasma strain RH per 1×10^6 cells with respect to each of the human myocardial cells and the human brain cells. Free Toxoplasma organisms having not penetrated into the cells are removed by washing with HBSS one hour after the inoculation.
(§9) An MEM-M culture medium containing a peptide sample is applied to the cover glass in an amount of 1 ml per 1×10^6 cells, followed by cultivation for 48 hours, and then stained with May-Grunwald-Giemsa to thereby count the number of Toxoplasma organisms in the cells. The percentage of cells containing Toxoplasma organisms is determined in the same manner as described above for mouse macrophages.
as §3, §6

Toxoplasma strain RH [6] = assay: Activity to inhibit multiplication of Toxoplasma in human cerebral cells (Flow 3000 cell); format: cell-based, Toxoplasma gondii; conditions: Obio-2 0.05 mg/ml
Method: as §1, §7, §8, §9, §3, §6

[7] = synthetic peptide 0.7 mM, mouse peritoneal macrophages
[8] = Obio-2 0.05 mg/ml, mouse macrophage

Substance	Percentage of cells containing Toxoplasma (Tp): 0 Tp (Toxoplasma strain RH [1]; [7]) [%]	Percentage of cells containing Toxoplasma (Tp): 1-5 Tp (Toxoplasma strain RH [1]; [7]) [%]	Percentage of cells containing Toxoplasma (Tp): ≥6 Tp/cell (Toxoplasma strain RH [1]; [7]) [%]	Toxo-GIF (Toxoplasma strain RH [1]; [7]) [%]	Percentage of cells containing Toxoplasma (Tp): 0 Tp (Toxoplasma) [%]	Percentage of cells containing Toxoplasma (Tp): 1-5 Tp (Toxoplasma) [%]	Percentage of cells containing Toxoplasma (Tp): ≥6 Tp/cell (Toxoplasma) [%]	Toxo-GIF (Toxoplasma) [%]	Average tumor area [2] [mm^2]	Bleeding colonies at the tumor tissue portions (histopathological findings) [3]	Spleen mononuclear cell count in tumor-bearing mice relative to normal mice [3]	Number of mononuclear cells per mouse [3]	other results
GAEEPVV [peptide No. 6]	55.2 ± 6.2	36.2 ± 8.6	8.6 ± 4.4	51.7	59.7 ± 15.8	29.5 ± 11.0	10.8 ± 7.1	51.1	219±40.1	no apparent bleeding colonies	0.72	9.1 × 10^7	
AEEPVV [peptide No. 5]	64.4 ± 9.3	32.8 ± 8.8	2.8 ± 1.1	61.6	69.6 ± 11.5	24.0 ± 9.1	6.4 ± 2.7	63.1	208±40.1	no apparent bleeding colonies	0.64	8.3 × 10^7	Concentration at which Toxo-GIF activity becomes appreciable / sufficient activity is detected (Toxoplasma strain RH [1]): 0.25 mg/mL; Percentage of cells containing Toxoplasma (Tp): 0 Tp (Toxoplasma strain RH [1]; [8]): 88.4 ± 7.6%; Percentage of cells containing Toxoplasma (Tp): 1-5 Tp (Toxoplasma strain RH [1]; [8]): 7.0 ± 4.5%; Percentage of cells containing Toxoplasma (Tp): ≥6 Tp/cell (Toxoplasma strain RH [1]; [8]): 4.6 ± 4.2%; Toxo-GIF (Toxoplasma strain RH [1]; [8]): 50.4%; Percentage of cells containing Toxoplasma (Tp): 0 Tp (Toxoplasma strain RH [4]): 80.5 ± 6.4%; Percentage of cells containing Toxoplasma (Tp): 1-5 Tp (Toxoplasma strain RH [4]): 12.8 ± 5.4%; Percentage of cells containing Toxoplasma (Tp): ≥6 Tp/cell (Toxoplasma strain RH [4]): 6.7 ± 3.3%; Toxo-GIF (Toxoplasma strain RH [4]): 67.4%; Percentage of cells containing Toxoplasma (Tp): 0 Tp (Toxoplasma strain RH [5]): 80.7 ± 6.1%; Percentage of cells containing Toxoplasma (Tp): 1-5 Tp (Toxoplasma strain RH [5]): 10.6 ± 3.4%; Percentage of cells containing Toxoplasma (Tp): ≥6 Tp/cell (Toxoplasma strain RH [5]): 8.7 ± 2.1%; Toxo-GIF (Toxoplasma strain RH [5]): 57.7%; Percentage of cells containing Toxoplasma (Tp): 0 Tp (Toxoplasma strain RH [6]): 75.4 ± 7.4%; Percentage of cells containing Toxoplasma (Tp): 1-5 Tp (Toxoplasma strain RH [6]): 12.6 ± 6.8%; Percentage of cells containing Toxoplasma (Tp): ≥6 Tp/cell (Toxoplasma strain RH [6]): 2.1 ± 1.9%; Toxo-GIF (Toxoplasma strain RH [6]): 78.2%
